Patent US20170002360A1, “PROTEIN PHOSPHATASE INHIBITOR” (priority 2013, published 2017)

Assays:
[1] = tested on: DU145 prostate cancer wild type cell line; test: CPT titration, loss of viability, wild-type prostate cancer cells; type: cell-based; conditions: varying concentrations of CPT; 48 hrs post CPT treatment
Protocol: FIG. 6A: Camptothecin (CPT) treatment of DU145 prostate cancer wild-type cell line. CPT was titrated on DU145 wild-type cells and 48 hrs post CPT treatment, the cells were examined for the loss of viability compared to control (untreated)
(§1) In addition to the described experiments, the effect of inhibiting the phosphatase PPEF1 on characterized published drug resistant cell lines was assessed. The resistant cell lines used in these experiments were DU145/RCO.1 cells, which were kindly provided by Prof. Dr. Yves Pommier from the Laboratory of Molecular Pharmacology, Center of Cancer research, National Cancer institute, Bethesda, USA. These DU145/RCO.1 cells and their resistance to CPT) have been described Urasaki et al. (Cancer Research 61, 2001, pp. 1964-1969). Initially, DU145 prostate cancer wild type cell line was treated with varying concentrations of camptothecin (CPT).

[2] = tested on: DU145/RCO.1 cells; test: CPT titration, loss of viability, CPT resistant cells with or without PPEF1 SiRNA; type: cell-based; conditions: 48 hrs post CPT treatment
Text: (§2) FIG. 6B: Camptothecin treatment of CPT approved resistant cells. CPT was titrated on DU145/RCO.1 cells reported to be resistant to CPT. 48 hrs post CPT treatment, the cells were examined for the loss of viability compared to control (untreated)
as §2, with “6C:” for “6B:”, “cells after PPEF1 inhibition. 24 hrs post PPEF1 SiRNA treatment,” for “cells.”
as §1
The results of these experiments can be seen in FIG. 6c.

Molecule	viability [1]	viability ([2]; varying concentrations of CPT alone)	sensitivity to CPT / viability ([2]; CPT titrated 24 hrs post PPEF1 SiRNA treatment)
CC[C@@]1(O)C(=O)OCc2c1cc1n(c2=O)Cc2cc3ccccc3nc2-1 [CPT, camptothecin]	greatly reduced	did not significantly change	
Example 2: SiRNA oligonucleotide targeting PPEF1, CAGTTCGAATCTGGTAAACAT, obtained from Qiagen (chemistry not given here)			became sensitive and lost viability
